Reference: ChEMBL document CHEMBL1201862, “PubChem BioAssay data set” (2004)
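Compound exposure: 48 hours, 5 concentrations, 96-well plates. GI50: concentration for 50% inhibition of growth.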 Calls of active or inactive are those of the source. No stated cut-off is given here; in the data, active = GI50 up to about 1.1 µM and inactive = higher.

Tests used:
Assay in all cases: inhibition of tumour cell growth, NCI panel, 48 h
A498 = test system: A498
HL-60 = test system: HL-60
MOLT-4 = test system: MOLT-4
SK-OV-3 = test system: SK-OV-3
ACHN = test system: ACHN
OVCAR-4 = test system: OVCAR-4
NCI-H226 = test system: NCI-H226
SF-268 = test system: SF-268
MCF7 = test system: MCF7
HOP-62 = test system: HOP-62
NCI-H23 = test system: NCI-H23
MDA-MB-435 = test system: MDA-MB-435
SW-620 = test system: SW-620
Malme-3M = test system: Malme-3M
COLO 205 = test system: COLO 205
SK-MEL-5 = test system: SK-MEL-5
OVCAR-8 = test system: OVCAR-8
OVCAR-3 = test system: OVCAR-3
786-0 = test system: 786-0
RXF 393 = test system: RXF 393
OVCAR-5 = test system: OVCAR-5
A549 = test system: A549
KM12 = test system: KM12
HCC 2998 = test system: HCC 2998
UO-31 = test system: UO-31
HCT-15 = test system: HCT-15
Hs-578T = test system: Hs-578T
MDA-N = test system: MDA-N
SF-539 = test system: SF-539
SNB-19 = test system: SNB-19
SNB-75 = test system: SNB-75
HT-29 = test system: HT-29
UACC-62 = test system: UACC-62
IGROV-1 = test system: IGROV-1
HOP-92 = test system: HOP-92
CAKI-1 = test system: CAKI-1
SR = test system: SR
SK-MEL-2 = test system: SK-MEL-2
BT-549 = test system: BT-549
NCI-H460 = test system: NCI-H460
M14 = test system: M14
NCI-H522 = test system: NCI-H522
TK-10 = test system: TK-10
U-251 = test system: U-251
HCT-116 = test system: HCT-116
CCRF-CEM = test system: CCRF-CEM
UACC-257 = test system: UACC-257
SK-MEL-28 = test system: SK-MEL-28
K562 = test system: K562
T47D = test system: T47D
SF-295 = test system: SF-295
PC-3 = test system: PC-3
SN12C = test system: SN12C
MDA-MB-231 = test system: MDA-MB-231
NCI/ADR-RES = test system: NCI/ADR-RES
RPMI-8226 = test system: RPMI-8226
EKVX = test system: EKVX
DU-145 = test system: DU-145
LOX IMVI = test system: LOX IMVI

CC(C)(Oc1ccc(-c2cccc3ccccc23)cc1)C(=O)O
GI50 (A498): > 100 µM (inactive)
GI50 (HL-60): 3.86 µM (inactive)
GI50 (MOLT-4): > 100 µM (inactive)
GI50 (SK-OV-3): > 100 µM (inactive)
GI50 (ACHN): > 100 µM (inactive)
GI50 (OVCAR-4): > 100 µM (inactive)
GI50 (NCI-H226): > 100 µM (inactive)
GI50 (SF-268): > 100 µM (inactive)
GI50 (MCF7): > 100 µM (inactive)
GI50 (HOP-62): > 100 µM (inactive)
GI50 (NCI-H23): > 100 µM (inactive)
GI50 (MDA-MB-435): > 100 µM (inactive)
GI50 (SW-620): > 100 µM (inactive)
GI50 (Malme-3M): > 100 µM (inactive)
GI50 (COLO 205): 71 µM (inactive)
GI50 (SK-MEL-5): 99.5 µM (inactive)
GI50 (OVCAR-8): > 100 µM (inactive)
GI50 (OVCAR-3): > 100 µM (inactive)
GI50 (786-0): > 100 µM (inactive)
GI50 (RXF 393): > 100 µM (inactive)
GI50 (OVCAR-5): > 100 µM (inactive)
GI50 (A549): 59.6 µM (inactive)
GI50 (KM12): 97.7 µM (inactive)
GI50 (HCC 2998): > 100 µM (inactive)
GI50 (UO-31): > 100 µM (inactive)
GI50 (HCT-15): 77.3 µM
GI50 (Hs-578T): > 100 µM (inactive)
GI50 (MDA-N): > 100 µM (inactive)
GI50 (SF-539): > 100 µM (inactive)
GI50 (SNB-19): > 100 µM (inactive)
GI50 (SNB-75): > 100 µM (inactive)
GI50 (HT-29): > 100 µM (inactive)
GI50 (UACC-62): > 100 µM (inactive)
GI50 (IGROV-1): > 100 µM (inactive)
GI50 (HOP-92): > 100 µM (inactive)
GI50 (CAKI-1): > 100 µM (inactive)
GI50 (SR): > 100 µM (inactive)
GI50 (SK-MEL-2): > 100 µM (inactive)
GI50 (BT-549): > 100 µM (inactive)
GI50 (NCI-H460): > 100 µM (inactive)
GI50 (M14): > 100 µM (inactive)
GI50 (NCI-H522): > 100 µM (inactive)
GI50 (TK-10): > 100 µM (inactive)
GI50 (U-251): > 100 µM (inactive)
GI50 (HCT-116): > 100 µM (inactive)
GI50 (CCRF-CEM): 6.22 µM (inactive)
GI50 (UACC-257): > 100 µM (inactive)
GI50 (SK-MEL-28): > 100 µM (inactive)
GI50 (K562): 1.3 µM (inactive)
GI50 (T47D): 80.2 µM (inactive)
GI50 (SF-295): 60.4 µM (inactive)
GI50 (PC-3): > 100 µM (inactive)
GI50 (SN12C): 85.1 µM (inactive)
GI50 (MDA-MB-231): > 100 µM (inactive)
GI50 (NCI/ADR-RES): > 100 µM (inactive)
GI50 (RPMI-8226): > 100 µM (inactive)
GI50 (EKVX): > 100 µM (inactive)
GI50 (DU-145): > 100 µM (inactive)

COc1cc2c(c(OC)c1OC)-c1ccc(SC)cc1[C@H](OC(=O)c1ccccc1)CC2
GI50 (A498): 0.437 µM (active)
GI50 (HL-60): 0.146 µM (active)
GI50 (MOLT-4): 0.151 µM (active)
GI50 (SK-OV-3): 5.04 µM (inactive)
GI50 (ACHN): 0.189 µM (active)
GI50 (NCI-H226): 0.237 µM (active)
GI50 (SF-268): 0.214 µM (active)
GI50 (MCF7): 0.0311 µM (active)
GI50 (NCI-H23): 0.0935 µM (active)
GI50 (MDA-MB-435): 0.0168 µM (active)
GI50 (SW-620): 0.0313 µM (active)
GI50 (COLO 205): 0.188 µM (active)
GI50 (SK-MEL-5): 0.0697 µM (active)
GI50 (OVCAR-8): 0.158 µM (active)
GI50 (LOX IMVI): 0.0743 µM (active)
GI50 (OVCAR-3): 0.199 µM (active)
GI50 (786-0): 0.106 µM (active)
GI50 (RXF 393): 0.0334 µM (active)
GI50 (OVCAR-5): 0.622 µM (active)
GI50 (A549): 0.123 µM (active)
GI50 (KM12): 0.0488 µM (active)
GI50 (HCC 2998): 0.32 µM (active)
GI50 (UO-31): 0.145 µM (active)
GI50 (HCT-15): 0.0667 µM
GI50 (Hs-578T): 0.132 µM (active)
GI50 (MDA-N): 0.0136 µM (active)
GI50 (SF-539): 0.0369 µM (active)
GI50 (SNB-19): 0.0828 µM (active)
GI50 (SNB-75): > 100 µM (inactive)
GI50 (HT-29): 0.122 µM (active)
GI50 (UACC-62): 0.0753 µM (active)
GI50 (IGROV-1): 0.145 µM (active)
GI50 (HOP-92): 0.286 µM (active)
GI50 (CAKI-1): 0.407 µM (active)
GI50 (SR): 0.0247 µM (active)
GI50 (SK-MEL-2): > 100 µM (inactive)
GI50 (BT-549): 0.309 µM (active)
GI50 (NCI-H460): 0.149 µM (active)
GI50 (M14): 0.0519 µM (active)
GI50 (NCI-H522): 0.0324 µM (active)
GI50 (TK-10): > 100 µM (inactive)
GI50 (U-251): 0.071 µM (active)
GI50 (HCT-116): 0.0817 µM (active)
GI50 (CCRF-CEM): 0.0488 µM (active)
GI50 (UACC-257): > 100 µM (inactive)
GI50 (SK-MEL-28): 0.0571 µM (active)
GI50 (K562): 0.0849 µM (active)
GI50 (T47D): 27.5 µM (inactive)
GI50 (SF-295): 0.0809 µM (active)
GI50 (PC-3): 0.0673 µM (active)
GI50 (SN12C): 0.254 µM (active)
GI50 (MDA-MB-231): 0.284 µM (active)
GI50 (NCI/ADR-RES): 0.0946 µM (active)
GI50 (RPMI-8226): 0.0424 µM (active)
GI50 (EKVX): 0.155 µM (active)
GI50 (DU-145): 0.203 µM (active)
